Test results: US7776882B2, “2-amino-3,4-dihydro-quinoline derivatives useful as inhibitors of β-secretase (BACE)” (priority 2006, dated 2010)
Like-named read-outs stand apart in the source and are kept apart here.

What was measured:
Format in all cases: biochemical
β-secretase (BACE) [1] = target: T1, β-secretase (BACE) (Homo sapiens, UniProt P56817); test: In Vitro BACE FS1 % Inhibition Assay (Example 10); conditions: FS1 substrate, values below about 25% (including negative) within noise; for inhibition at 0.3 µM / % Inhibition (Example 10) @ 0.3 μM: 0.3 μM compound; for inhibition at 1 µM / % Inhibition (Example 10) @ 1 μM: 1 μM compound; for inhibition at 3 µM / % Inhibition (Example 10) @ 3 μM: 3 μM compound
T1 construct: purchased Panvera
Procedure: (§1) The following assay buffers were prepared and used in this assay: (1) enzyme assay buffer (0.05 M sodium acetate, pH5, 0.1% PEG8000 (w/v)), (2) substrate assay buffer (0.05 M sodium acetate, pH5), and (3) compound vehicle (30% DMSO in 50 mM HEPES, pH 7.4).
(§2) The FS1-substrate stock solution was prepared in DMSO as a 10 mg/mL solution. The FS1-substrate working solution was prepared by diluting the 10 mg/mL stock solution with substrate assay buffer to a final concentration of 300 μg/mL. The β-secretase (BACE) working solution was prepared by diluting a 0.83 mg/mL BACE stock solution with enzyme assay buffer to a final concentration of 4 μg/mL.
Test compounds were dissolved in DMSO to 10 mM. Compounds were further diluted in vehicle to various concentrations in the range of 405 μM to 4.05 μM (13.5×final compound concentration in screening plate).
The screening procedure for this assay was as follows: 15 μL of BACE working solution was pipetted into each well of a 96-well plate. To each well was then pipetted 2 μL of test compound at the selected concentration. Test compound and BACE were then mixed with a pipettor and incubated for 20 min at room temperature. To each well was then added 10 μL of the FS1 substrate working solution. The plates were then incubated for 1 hour at room temperature. The fluorescence for each well was then measured on an LJL analyst (Ex 360 nm/Em 530 nm).
The procedure for the blank (negative control) was as follows. 15 μL of assay buffer was pipetted into each well to be used as a blank control. To each well was then added 2 μL of vehicle and 10 μL of FS1-substrate working solution. The plates were then incubated for 1 hour at room temperature. The fluorescence was measured on an LJL analyst (Ex 360 nm/Em 530 nm).
The procedure for the positive control was as follows: 15 μL of BACE working solution was pipetted into each well to be used as a positive control. To each well was then pipetted 2 μL of vehicle. Vehicle and BACE were then mixed with a pipettor and incubated for 20 min at room temperature. To each well was then added 10 μL of the FS1 substrate working solution. The plates were then incubated for 1 hour at room temperature. The fluorescence (Fl) was then measured on an LJL analyst (Ex 360 nm/Em 530 nm).
For test compounds, % inhibition was determined at each concentration as follows: […]

β-secretase (BACE) [2] = target: T1, β-secretase (BACE); test: In Vitro BACE Assay, Ki (Example 11); conditions: FS1 substrate 50 μM, Km 24 μM
Procedure: The following reagents were used in this assay: sodium acetate, PEG8000 (Sigma), DMSO, HEPES, FS1 substrate [R(AedensE)[…]-(DabcylK)R], β-secretase (BACE) (Panvera), and 96-well plate (HE microplate, Molecular Devices).
as §1, §2
Test compounds were dissolved in DMSO at 10 mM.
The procedure for this assay was as follows: 15 μL of BACE working solution was pipetted into each well of a 96-well plate. To each well was then pipetted 2 μL of test compound at the selected concentration. Test compound and BACE were then mixed with a pipettor and incubated for 20 min at room temperature. To each well was then added 10 μL of the FS1 substrate working solution. The fluorescence for each well was then measured on a Polarstar fluorometer (Ex 390 nm/Em 520 nm) for 20 min at room temperature, reading fluorescence at 1 min intervals.
The procedure for the positive control was as follows: 15 μL of BACE working solution was pipetted into each well to be used as a positive control. To each well was then pipetted 2 μL of vehicle. Vehicle and BACE were then mixed with a pipettor and incubated for 20 min at room temperature. To each well was then added 10 μL of the FS1 substrate working solution. The fluorescence was then measured on a Polarstar fluorometer (Ex 390 nm/Em 520 nm) for 20 min at room temperature, reading fluorescence at 1 min intervals.
For test compounds, Ki inhibition was determined as follows: For each compound concentration and positive control, rate of cleavage of substrate (Vi, where i=compound concentration in μM) was determined as Δ Fluorescence/Δ time (min). Cleavage rates (Vi) were plotted as a function of inhibitor concentration in μM [I]. The Ki was then determined by fitting the following equation to the graph of [I] vs Vi Y=aVmax/(50+24*(1+X/Ki)),

human BACE-1 = target: T2, human BACE-1 (Homo sapiens, UniProt P56817); test: In Vitro BACE Assay run by CEREP (Example 14); conditions: recombinant enzyme, 60 min at 37° C., pH 4.5; for inhibition at 1 µM / % Inhibition 1 μM: 1 μM compound; for inhibition at 0.3 µM / % Inhibition 0.3 μM: 0.3 μM compound
T2 construct: purchased CEREP (contract assay) 761-B
Procedure: This assay was run by CEREP (Catalog Ref. 761-B, Referred to SOP No. 1C131; ERMOLIEFF, J., LOY, J. A., KOELSCH, G. and TANG, J., Proteolytic activation of recombinant pro-memapsin 2 (pro-BACE) studied with new fluorogenic substrates, Biochemistry, (2000) Vol. 39, p. 12450).
More specifically the assay, run at 50 μL in a 96 well plate, evaluated the effect of test compound on the activity of the human BACE-1 quantified by measuring the formation of Mca-S-E-V-N-L-NH2 from Mca-S-E-V-N-L-D-A-E-F-R-K(Dnp)-R-R-NH2, using a recombinant enzyme.
The test compound, reference compound or water (control) was added to a buffer containing 0.09 M sodium acetate (pH 4.5) and 0.25 μg BACE-1. Compound interference with the fluorimetric detection method due to autofluorescence was then checked by measurements at the wavelengths defined to evaluate the enzyme activity. Thereafter, the reaction was initiated by adding 7.5 μM of the substrate Mca-S-E-V-N-L-D-A-E-F-R-K(Dnp)-R-R-NH2 and the mixture was incubated for 60 min at 37° C. For control basal measurement, the substrate was omitted from the reaction mixture. Immediately after the incubation, the fluorescence intensity emitted by the reaction product Mca-S-E-V-N-L-NH2 was measured at λex=320 nm and λem=405 nm using a microplate reader (Ultra, Tecan). The standard inhibitory reference compound was OM99-2, which was tested in each experiment at several concentrations to obtain an inhibition curve from which its IC50 value was calculated.

T2 sequence (P56817 46-501): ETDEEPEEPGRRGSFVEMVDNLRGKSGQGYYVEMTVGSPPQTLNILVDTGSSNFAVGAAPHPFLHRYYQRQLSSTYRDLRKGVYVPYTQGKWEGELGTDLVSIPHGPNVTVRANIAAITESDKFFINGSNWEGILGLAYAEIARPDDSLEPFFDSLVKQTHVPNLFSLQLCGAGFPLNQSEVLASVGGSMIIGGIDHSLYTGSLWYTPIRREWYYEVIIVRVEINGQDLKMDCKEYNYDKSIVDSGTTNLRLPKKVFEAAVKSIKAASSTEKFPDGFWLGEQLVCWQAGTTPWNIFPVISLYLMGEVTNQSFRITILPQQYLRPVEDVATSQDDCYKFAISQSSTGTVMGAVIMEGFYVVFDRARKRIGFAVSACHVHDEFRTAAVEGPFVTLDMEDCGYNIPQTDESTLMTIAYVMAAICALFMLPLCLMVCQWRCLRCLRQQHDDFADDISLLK
T1 sequence (P56817 46-501): as above

CC1CCCC(NC(=O)CCc2cc3cc(Oc4ccccc4)ccc3nc2N)C1 (stereo not shown) [compound 3]
inhibition at 0.3 µM (β-secretase (BACE) [1]): 58%
inhibition at 1 µM (β-secretase (BACE) [1]): 89%
inhibition at 3 µM (β-secretase (BACE) [1]): 115%
Ki (β-secretase (BACE) [2]; Ki (μM) (Example 11)): 0.49 µM

CC(C)=CCCC(C)=CCNC(=O)CCc1cc2cc(Oc3ccccc3)ccc2nc1N [compound 13]
inhibition at 0.3 µM (β-secretase (BACE) [1]): 2%
inhibition at 1 µM (β-secretase (BACE) [1]): 42%
inhibition at 3 µM (β-secretase (BACE) [1]): 88%
Ki (β-secretase (BACE) [2]; Ki (μM) (Example 11)): 0.64 µM

Nc1nc2ccc(Oc3ccccc3)cc2cc1C(CCC(=O)NC12CC3CC(CC(C3)C1)C2)C1CCOCC1 (stereo not shown) [compound 24]
% Inhibition (Example 10) @ 0.3 μM (β-secretase (BACE) [1]): 56%
% Inhibition (Example 10) @ 1 μM (β-secretase (BACE) [1]): 103%
% Inhibition (Example 10) @ 3 μM (β-secretase (BACE) [1]): 132%
Ki (β-secretase (BACE) [2]; read-out: Ki (μM) (Example 11)): 0.066 µM

Nc1nc2ccc(Oc3ccccc3)cc2cc1CCC(=O)NC12CC3CC(CC(C3)C1)C2 [compound 2]
% Inhibition (Example 10) @ 0.3 μM (β-secretase (BACE) [1]): 45%
% Inhibition (Example 10) @ 1 μM (β-secretase (BACE) [1]): 78%
% Inhibition (Example 10) @ 3 μM (β-secretase (BACE) [1]): 107%
Ki (β-secretase (BACE) [2]; read-out: Ki (μM) (Example 11)): 0.23 µM

Nc1nc2ccc(Oc3ccccc3)cc2cc1C(CCC(=O)N(CC1CC1)C1CCCCC1)C1CCOCC1 (stereo not shown) [compound 67]
inhibition at 1 µM (human BACE-1): 90%
IC50 (human BACE-1): 0.41 µM

Nc1nc2ccc(Oc3ccccc3)cc2cc1C(CCC(=O)NCc1nnnn1Cc1ccccc1)C1CCOCC1 (stereo not shown) [compound 31]
inhibition at 0.3 µM (human BACE-1): 32%
inhibition at 1 µM (human BACE-1): 59%
IC50 (human BACE-1): 0.74 µM

CN(Cc1ccccc1)C(=O)CCC(c1cc2cc(Oc3ccccc3)ccc2nc1N)C1CCCCC1 (stereo not shown) [compound 38]
% Inhibition 0.3 μM (human BACE-1): 8%
% Inhibition 1 μM (human BACE-1): 9%

Nc1nc2ccc(Oc3ccccc3)cc2cc1C(CCC(=O)NC12CC3CC(CC(C3)C1)C2)C1CCCCC1 (stereo not shown) [compound 15]
% Inhibition (Example 10) @ 0.3 μM (β-secretase (BACE) [1]): 43%
% Inhibition (Example 10) @ 1 μM (β-secretase (BACE) [1]): 58%
% Inhibition (Example 10) @ 3 μM (β-secretase (BACE) [1]): 78%
Ki (β-secretase (BACE) [2]; read-out: Ki (μM) (Example 11)): 0.28 µM

Nc1nc2ccc(Oc3ccccc3)cc2cc1C(CCC(=O)N(CCO)CC1CC1)C1CCOCC1 (stereo not shown) [compound 68]
inhibition at 1 µM (human BACE-1): 41%
IC50 (human BACE-1): 1.5 µM

CN(C(=O)CCC(c1cc2cc(Oc3ccccc3)ccc2nc1N)C1CCCCC1)C1CCCCC1 (stereo not shown) [compound 16]
inhibition at 0.3 µM (β-secretase (BACE) [1]): 29%
inhibition at 1 µM (β-secretase (BACE) [1]): 27%
inhibition at 3 µM (β-secretase (BACE) [1]): 78%
Ki (β-secretase (BACE) [2]; Ki (μM) (Example 11)): 0.44 µM
inhibition at 0.3 µM (human BACE-1): 15%
inhibition at 1 µM (human BACE-1): 46%
IC50 (human BACE-1): 0.7 µM

Cn1ccnc1CN(CCC(C)(C)C)C(=O)CCC(c1cc2cc(Oc3ccccc3)ccc2nc1N)C1CCCCC1 (stereo not shown) [compound 71]
% Inhibition 1 μM (human BACE-1; 1 µM): 73%

CC(C)(C)CN(Cc1c[nH]cn1)C(=O)CCC(c1cc2cc(Oc3ccccc3)ccc2nc1N)C1CCOCC1 (stereo not shown) [compound 59]
% Inhibition 1 μM (human BACE-1): 78%

Nc1nc2ccc(Oc3ccccc3)cc2cc1C(CCC(=O)NC1CN2CCC1CC2)C1CCOCC1 (stereo not shown) [compound 51]
inhibition at 1 µM (human BACE-1): 56%
IC50 (human BACE-1): 1.2 µM

Cn1ccnc1CN(CCC(C)(C)C)C(=O)CCC(c1cc2cc(Oc3ccccc3)ccc2nc1N)C1CCCCC1 (stereo not shown) [compound 70]
% Inhibition 1 μM (human BACE-1; 1 µM): 10%

Nc1nc2ccc(Oc3ccccc3)cc2cc1C(CCC(=O)N(c1ncc[nH]1)C1CCCCC1)C1CCCCC1 (stereo not shown) [compound 41]
inhibition at 0.3 µM (human BACE-1): 11%
inhibition at 1 µM (human BACE-1): 79%
IC50 (human BACE-1): 0.47 µM

Nc1nc2ccc(Oc3ccccc3)cc2cc1C(CCC(=O)N(Cc1c[nH]cn1)C1CCCCC1)C1CCOCC1 (stereo not shown) [compound 53]
inhibition at 1 µM (human BACE-1): 90%
IC50 (human BACE-1): 0.46 µM

Cn1ccnc1CN(CCC(C)(C)C)C(=O)CCC(c1cc2cc(Oc3ccccc3)ccc2nc1N)C1CCCCC1 (stereo not shown) [compound 72]
% Inhibition 1 μM (human BACE-1; 1 µM): 81%

CC(C)(C)OC[C@@H](NC(=O)CC[C@H](c1cc2cc(Oc3ccccc3)ccc2nc1N)C1CCCCC1)C(=O)N1CCOCC1 [compound 45]
inhibition at 1 µM (human BACE-1): 46%
IC50 (human BACE-1): 1.1 µM

Nc1nc2ccc(Oc3ccccc3)cc2cc1C(CCC(=O)N(CCN1CCCC1)C1CCCCC1)C1CCCCC1 (stereo not shown) [compound 37]
inhibition at 0.3 µM (human BACE-1): 27%
inhibition at 1 µM (human BACE-1): 81%
IC50 (human BACE-1): 0.58 µM

CN(CC1CCCCC1)C(=O)CCC(c1cc2cc(Oc3ccccc3)ccc2nc1N)C1CCCCC1 (stereo not shown) [compound 40]
% Inhibition 0.3 μM (human BACE-1): 13%
% Inhibition 1 μM (human BACE-1): 54%
IC50 (human BACE-1): 0.65 µM

CN(C(=O)CC[C@H](c1cc2cc(Oc3ccccc3)ccc2nc1N)C1CCOCC1)C1CCCCC1 [compound 25]
inhibition at 0.3 µM (β-secretase (BACE) [1]): 83%
inhibition at 1 µM (β-secretase (BACE) [1]): 114%
inhibition at 3 µM (β-secretase (BACE) [1]): 126%
Ki (β-secretase (BACE) [2]; Ki (μM) (Example 11)): 0.16 µM

CC(C)(C)OCCN(C(=O)CCC(c1cc2cc(Oc3ccccc3)ccc2nc1N)C1CCOCC1)C1CCCCC1 (stereo not shown) [compound 66]
inhibition at 1 µM (human BACE-1): 86%
IC50 (human BACE-1): 0.47 µM

C=CCCC(c1cc2cc(Oc3ccccc3)ccc2nc1N)C1CCCCC1 (stereo not shown) [compound 509]
% Inhibition 0.3 μM (human BACE-1): 11%
% Inhibition 1 μM (human BACE-1): −3%

CC(C)(C)CCN(Cc1ncc[nH]1)C(=O)CCC(c1cc2cc(Oc3ccccc3)ccc2nc1N)C1CCOCC1 (stereo not shown) [compound 57]
% Inhibition 1 μM (human BACE-1): 93%
